Laboratory results: patent US8921372B2, “Inhibitors of hepatitis C virus” (Theravance Biopharma R&D IP, LLC, priority 2010, dated 2014)

Legend:
[1] = test system: HCV genotype 1a replicon cell line (APC89; Huh7.5 cell background); test: HCV Genotype 1a Replicon Assay (NS3-specific protease activity readout); format: cell-based; settings: Hepatitis C virus, 72 hour incubation, read-out: Genotype 1a (pEC50 class, HCV genotype 1a replicon assay) (converted)
Summary of the method: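 EC50 values came from a 4-parameter robust fit of fluorescence (ex 340, em 509 nm) produced by NS3-specific protease in lysates, assayed with 15 μM FRET substrate for 20 min at 37° C, after 48 or 72 hours of compound exposure (0.5% DMSO) of Huh7.5-derived APC89 genotype 1a replicon cells.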

[2] = test system: HCV genotype 1b replicon cell line (APC144; Huh7 cell background); test: HCV Genotype 1b Replicon Assay (Renilla luciferase readout); format: cell-based; settings: Hepatitis C virus, Huh-7; read-out: Genotype 1b (pEC50 class, HCV genotype 1b replicon assay) (converted)
Summary of the method: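 Reported as pEC50 derived from a 4-parameter fit of Renilla luciferase activity against concentration. Replicon cells (APC144, Huh7 background) were exposed to compound for 48 h in G418-free medium with final 0.5% DMSO, after seeding at 10,000 cells/well and 4 h adherence.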

| Structure (SMILES) | EC50 [1] | EC50 [2] |
| --- | --- | --- |
| COC(=O)N[C@H](C(=O)N1CCC[C@H]1c1nc(-c2ccc(-c3cc(Cl)c(NC(=O)c4ccc(N5C[C@H](C)N(C(=O)c6c[nH]cn6)C[C@H]5C)nc4)cc3C(F)(F)F)cc2)c[nH]1)C(C)C [Example 65] | < 0.1 nM | < 0.1 nM |
| COCC(=O)N1CCC[C@@]1(C)C(=O)N1CCN(c2ccc(NC(=O)c3ccc(-c4ccc(-c5c[nH]c([C@@H]6CCCN6C(=O)[C@@H](NC(=O)OC)C(C)C)n5)cc4)c(OC(F)(F)F)c3)cn2)[C@H](C)C1 [Example 66] | < 0.1 nM | < 0.1 nM |
| COC(=O)N[C@H](C(=O)N1CCC[C@H]1c1nc(-c2ccc(-c3ccc(C(=O)Nc4ccc(N5CCN(C(=O)[C@]6(C)CCCN6C(=O)CO)C[C@H]5C)nc4)cc3OC(F)(F)F)cc2)c[nH]1)C(C)C [Example 68] | 0.1 to 1 nM | < 0.1 nM |
| COC(=O)N[C@H](C(=O)N1CCC[C@H]1c1nc(-c2ccc(-c3ccc(C(=O)Nc4ccc(N5CCN(C(=O)[C@]6(C)CCCN6C(=O)C(C)(C)O)C[C@H]5C)nc4)cc3OC(F)(F)F)cc2)c[nH]1)C(C)C [Example 69] | 0.1 to 1 nM | < 0.1 nM |
| COC(=O)N[C@H](C(=O)N1CCC[C@H]1c1nc(-c2ccc(-c3ccc(NC(=O)c4ccc(N5C[C@H](C)N(C(=O)[C@H]6CC6(C)C)C[C@H]5C)nc4)c(C)n3)cc2)c[nH]1)C(C)C [Example 71, {(S)-1-[(S)-2-(4-{4-[5-({6-[(2R,5S)-4-((S)-2,2-Dimethyl-cyclopropanecarbonyl)-2,5-dimethyl-piperazin-1-yl]-pyridine-3-carbonyl}-amino)-6-methyl-pyridin-2-yl]-phenyl}-1H-imidazol-2-yl)-pyrrolidine-1-carbonyl]-2-methyl-propyl}-carbamic acid methyl ester] | 0.1 to 1 nM | < 0.1 nM |
